Results on 2 compounds are retold here after PMC11879792 (Frontiers in Pharmacology, 2025).

Details of data set [1]: method as in Diasio and Harris, 1989. The note with it: parenteral administration of 5-FU; approximately; ref Diasio and Harris, 1989; cited from earlier work.
A short description of data set [2]: Single-dose, two-cycle crossover PK/bioequivalence trial of S-1 capsules, fasting. Type of data set: in vivo, Chinese cancer patients. The following applies: human, plasma, oral, 100 mg; fasting conditions. An excerpt:
This study, a multicenter, randomized, open-label, single-dose, two-cycle crossover investigation, was distinctly divided into fasting and fed trials. Each subject received either the test or reference formulation in a separate cycle. Each cycle consisted of a 4-day inpatient phase, followed by a 7-day washout period between cycles to ensure that any residual effects from the previous formulation had fully dissipated before the initiation of the next cycle. To avoid the residual effects of fasting or feeding that could influence the results, the fasting and fed trials each enrolled 60 subjects. Subjects were randomly allocated to one of the two treatment sequences, namely, test-reference or reference-test, in a 1:1 ratio. All eligible subjects were admitted to the clinical ward 1 day prior to drug administration, adhering to a minimum fasting period of 10 h before drug intake. In the fasting trial, subjects were required to fast. Subsequently, they ingested a single dose comprising two capsules (50 mg each) of either the test or reference formulation, accompanied by 240 mL of warm water. […]
OXO was determined in blood, which was performed under the following conditions: the aqueous solution containing 5 mM ammonium acetate (mobile phase A) and acetonitrile (mobile phase B). […]

Usually half-life stands for how long it takes for the measured level to halve. In the case of `O=c1[nH]cc(F)c(=O)[nH]1` [5-FU, 5-fluorouracil], the half-life in data set [1] is 8 to 20 min.

What is called Tmax is the time at which the peak concentration occurs. Turning to `Oc1cc(O)c(Cl)cn1` [CDHP, gimeracil], in data set [2], the Tmax is about 1 h.
